Source: publication PMC5505701, “Somatostatin binds to the human amyloid β peptide and favors the formation of distinct oligomers” (eLife, 2017)
“Also recorded” adds a separate entry of the source.

How the values were obtained:
Aβ1-42 [1] = biological target: T1, Aβ1-42 (Homo sapiens, UniProt P05067); assay: Western blot / silver stain detection of Aβ1-42 after incubation with SST14 or CST17; type: biochemical; details: 18 hr incubation, 6E10 Western blot, Aβ1-42 alone or with SST14 or CST17
T1 construct: purchased Anaspec, Inc. (Fremont, CA, USA) AS-24224; host or cells: synthetic peptide
Description: Initially, we were interested in observing the influence of incubation time on sample composition (Figure 5B).

SST14 = assay: SST14-dependent ThT incorporation in presence of Aβ1-42; type: biochemical, human
From the text: Figure 4. […] (A) Workflow of ThT-based aggregation assay. (B) Representative ThT fluorescence charts using synthetic Aβ1-42 alone or in combination with SST14 or negative control AVP peptides. […] Please see legend for experimental conditions. DOI: http://dx.doi.org/10.7554/eLife.28401.008 Figure 4—figure supplement 1. […] (A) Workflow of ThT-based aggregation assay. […] (B) Representative ThT fluorescence charts monitoring SST14-dependent ThT incorporation. […] DOI: http://dx.doi.org/10.7554/eLife.28401.009 [drawing 1] Figure 4—figure supplement 2. […] (A) Workflow of amylin-dependent ThT fluorecence assay in the presence or absence of SST14. (B) Representative ThT fluorescence charts monitoring amylin-dependent ThT incorporation. […] DOI: http://dx.doi.org/10.7554/eLife.28401.010 [drawing 2]
Assay procedures were largely based on a protocol described by Sarah Linse’s group ([Hellstrand et al., 2010]). […] The subsequent plate incubation proceeded at 37°C with shaking at 700 rpm for 4 of every 5 min in a microplate reader (CLARIOstar, BMG Labtech, Guelph, ON, Canada) for overall durations specified in individual figures. ThT fluorescence was measured every 5 min at excitation and emission wavelengths of 444 nm and 485 nm, respectively.

[2] = system: tau phosphorylated at pSer202/pThr205 (AT8) and pThr231 (AT180) in primary hippocampal neurons; assay: Primary hippocampal neuron tau phosphorylation assay (Western blot)
Aβ1-42 [3] = biological target: T1, Aβ1-42; assay: Negative stain electron microscopy of Aβ1-42 assemblies; type: biochemical; details: 50 μM Aβ1-42 in PBS, with or without equimolar SST
Aβ = details: ref Maftei et al., 2012; cited from earlier work
From the text: Although initially captured at pH 8.0, a widely-used pH for interactome analyses, owed to its wide-spread use in radioimmunoprecipitation assay (RIPA) buffer formulations, the oAβ-SST14 interaction was in subsequent validation ...

T1 sequence (P05067 672-713 limits assumed): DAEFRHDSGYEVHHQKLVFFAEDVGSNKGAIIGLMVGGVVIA

| Substance | apparent molecular weight of HMM 6E10 signals (Aβ1-42 [1]) | delay of SST14-dependent ThT incorporation by monomeric Aβ1-42 (SST14; 1 μM monomeric Aβ1-42, 250 μM SST14) | delay of SST14-dependent ThT incorporation by oligomeric Aβ1-42 (SST14; 1 μM pre-aggregated Aβ1-42, 250 μM SST14) | tau hyperphosphorylation by monomeric Aβ1-42 ([2]; monomeric Aβ1-42 (0 hr) alone, 24 hr exposure) | tau hyperphosphorylation by oligomeric Aβ1-42 ([2]; pre-aggregated (24 hr) Aβ1-42, 24 hr exposure, day 18 cultures, AT8 and AT180, listed as oAβ1-42) | assemblies observed by negative stain electron microscopy (Aβ1-42 [3]) | Aβ binding epitope (Aβ) |
| --- | --- | --- | --- | --- | --- | --- | --- |
| amyloid β peptide 1-42 [Aβ1-42] | 55-200 kDa | Oligomeric, but not monomeric, Aβ1-42 interferes with SST14-dependent ThT incorporation | reliably delayed SST14-dependent ThT incorporation by several hours; also recorded: profound delay in SST14 aggregation-dependent ThT incorporation | not observed when monomeric Aβ1-42 was added to the cell culture medium alone | robust tau hyperphosphorylation was observed | characteristic amyloid fibrils | – |
| humanin: 21-24 amino acid peptide coded within the mitochondrial 16S ribosomal RNA gene | – | – | – | – | – | – | interacts with an Aβ binding epitope encompassing residues 17-28 |
